Biological target: T1, human norepinephrine transporter (Homo sapiens, UniProt P23975)
T1 construct: expressed in transfected cells; host or cells: MDCK (dog kidney) cells, stably transfected; total cell membranes
Assay: [125I]RTI-55 membrane binding assay
Settings: for IC50: membranes of MDCK cells transfected with human NET, 0.2 nM [125I]RTI-55, 4° C., 3 h, read-out: IC50, inhibition of [125I]RTI-55 binding to norepinephrine transporter; for inhibition of [125I]RTI-55 binding to norepinephrine transporter (result in words): qualitative statement
Protocol: Membrane Binding Assay. Membranes from dog kidney MDCK cells, which stably transfected with the human norepinephrine transporter, were used. Total cell membranes were prepared from transfected cells grown to confluence in 500 cm^2 tissue culture dishes. Cells were scraped into centrifuge tube and pelleted at 900 g and 4° C. for 10 min. The pellets were resuspended in modified Tris-HCl buffer (50 mM Tris-HCl, 100 mM NaCl, 1 μM leupetin, 10 μM PMSF; pH 7.4), and centrifuged at 17000 g and 4° C. for 30 min. Then, the pellets were resuspended, homogenized with a glass homogenizer with a Teflon pestle and centrifuged at 17000 g and 4° C. for 90 minutes. Pellets were collected and resuspended in modified Tris-HCl buffer. Protein concentrations were determined using BCA protein assay reagent (Pierce, Rockford). […] The binding was terminated by rapid vacuum filtration over Whatman GF/B filters soaked in 0.3% polyethylineimine followed by three rapid 1 mL washes in ice-cold buffer. Bound radioactivity was measured by gamma emission spectrometry. Non-specific binding was determined in the presence of 10 μM desipramine and was subtracted from the data in the absence of desipramine to yield specific binding.

T1 sequence (P23975 whole entry): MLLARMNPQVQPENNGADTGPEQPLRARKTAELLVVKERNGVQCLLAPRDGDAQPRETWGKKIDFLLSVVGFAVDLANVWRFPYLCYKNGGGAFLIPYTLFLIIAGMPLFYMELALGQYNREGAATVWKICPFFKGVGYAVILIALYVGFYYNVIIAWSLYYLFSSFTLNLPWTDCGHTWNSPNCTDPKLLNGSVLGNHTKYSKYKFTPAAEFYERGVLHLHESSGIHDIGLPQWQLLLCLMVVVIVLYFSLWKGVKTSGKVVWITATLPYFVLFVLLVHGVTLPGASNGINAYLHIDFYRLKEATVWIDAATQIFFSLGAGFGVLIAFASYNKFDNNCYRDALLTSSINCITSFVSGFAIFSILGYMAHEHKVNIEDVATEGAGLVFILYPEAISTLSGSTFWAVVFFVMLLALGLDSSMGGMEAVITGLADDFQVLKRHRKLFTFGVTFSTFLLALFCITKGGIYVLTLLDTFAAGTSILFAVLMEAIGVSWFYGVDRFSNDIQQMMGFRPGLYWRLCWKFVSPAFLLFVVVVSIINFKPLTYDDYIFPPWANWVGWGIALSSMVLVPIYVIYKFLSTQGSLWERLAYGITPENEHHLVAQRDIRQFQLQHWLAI

IC50 [µM]	inhibition of [125I]RTI-55 binding to norepinephrine transporter (result in words)	SMILES
30	more potent than the others	O=C(OCC1OC(OC2COC(CO)C(O)C2O)C(O)C(O)C1O)c1ccccc1 (stereo not drawn) [Compound 1, 6-O-benzoyl polygolitosyl-(2→1)-α-galactose]
6.04	more potent than the others	O=C(OC1C(O)C(CO)OC(OC2COC(CO)C(O)C2O)C1O)c1ccccc1 (stereo not drawn) [Compound 2, 3-O-benzoyl-polygolitosyl-(2→1)-α-galactose]
